Test results taken from patent publication US9067943B2, “[1,2,3]triazolo[4,5-D]pyrimidine derivatives” (priority 2011, dated 2015).

Key:
human CB2 receptors = target: T1, human CB2 receptors (Homo sapiens, UniProt P34972); test: cAMP assay; assay type: cell-based
T1 construct: expressed in transfected cells; host or cells: CHO cells
Method: (§1) CHO cells expressing human CB1 or CB2 receptors are seeded 17-24 hours prior to the experiment 50.000 cells per well in a black 96 well plate with flat clear bottom (Corning Costar #3904) in DMEM (Invitrogen No. 31331), 1×HT supplement, with 10% fetal calf serum and incubated at 5% CO2 and 37° C. in a humidified incubator. The growth medium was exchanged with Krebs Ringer Bicarbonate buffer with 1 mM IBMX and incubated at 30° C. for 30 min. Compounds were added to a final assay volume of 100 μl and incubated for 30 min at 30° C. Using the cAMP-Nano-TRF detection kit the assay (Roche Diagnostics) was stopped by the addition of 50 μl lysis reagent (Tris, NaCl, 1.5% Triton X100, 2.5% NP40, 10% NaN3) and 50 μl detection solutions (20 μM mAb Alexa700-cAMP 1:1, and 48 μM Ruthenium-2-AHA-cAMP) and shaken for 2 h at room temperature. The time-resolved energy transfer is measured by a TRF reader (Evotec Technologies GmbH), equipped with a ND:YAG laser as excitation source. The plate is measured twice with the excitation at 355 nm and at the emission with a delay of 100 ns and a gate of 100 ns, total exposure time 10 s at 730 (bandwidth 30 nm) or 645 nm (bandwidth 75 nm), respectively. The FRET signal is calculated as follows: FRET=T730-Alexa730-P(T645-B645) with P=Ru730-B730/Ru645-B645, where T730 is the test well measured at 730 nM, T645 is the test well measured at 645 nm, B730 and B645 are the buffer controls at 730 nm and 645 nm, respectively. cAMP content is determined from the function of a standard curve spanning from 10 μM to 0.1 nM cAMP.
(§2) EC50 values were determined using Activity Base analysis (ID Business Solution, Limited). The EC50 values for a wide range of cannabinoid agonists generated from this assay were in agreement with the values published in the scientific literature.

human CB1 receptors = target: T2, human CB1 receptors (Homo sapiens, UniProt P21554); test: cAMP assay; assay type: cell-based
T2 construct: expressed in transfected cells; host or cells: CHO cells
T2 sequence (P21554 whole entry): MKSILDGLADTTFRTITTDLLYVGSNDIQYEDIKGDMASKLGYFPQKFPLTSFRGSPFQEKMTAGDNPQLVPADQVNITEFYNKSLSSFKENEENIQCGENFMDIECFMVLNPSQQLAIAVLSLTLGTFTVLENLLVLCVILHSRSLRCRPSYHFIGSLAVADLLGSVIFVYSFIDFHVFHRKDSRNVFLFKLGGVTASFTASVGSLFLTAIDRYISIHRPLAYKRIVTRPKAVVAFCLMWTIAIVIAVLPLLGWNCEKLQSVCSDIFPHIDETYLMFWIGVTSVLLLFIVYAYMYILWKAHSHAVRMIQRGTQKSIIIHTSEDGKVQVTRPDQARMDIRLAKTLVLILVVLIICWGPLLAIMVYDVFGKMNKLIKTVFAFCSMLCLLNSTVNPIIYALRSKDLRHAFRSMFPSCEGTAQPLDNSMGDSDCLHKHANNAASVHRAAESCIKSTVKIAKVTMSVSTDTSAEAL
Method: as §1, §2

T1 sequence (P34972 whole entry): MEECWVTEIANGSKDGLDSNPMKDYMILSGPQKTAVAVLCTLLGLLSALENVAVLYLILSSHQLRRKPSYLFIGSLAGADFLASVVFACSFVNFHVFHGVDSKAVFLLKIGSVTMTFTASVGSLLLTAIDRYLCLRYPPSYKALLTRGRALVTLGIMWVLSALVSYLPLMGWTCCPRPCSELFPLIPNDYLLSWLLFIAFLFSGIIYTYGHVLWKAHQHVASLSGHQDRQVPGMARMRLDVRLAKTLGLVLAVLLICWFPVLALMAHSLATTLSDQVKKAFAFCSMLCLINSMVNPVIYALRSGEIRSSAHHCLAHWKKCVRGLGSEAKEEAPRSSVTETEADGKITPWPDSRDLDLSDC

Row | SMILES | EC50 (human CB2 receptors) | EC50 (human CB1 receptors)
1 | CC(C)(C)c1nc(N2CCC(F)(F)C2)c2nn(Cc3cccc(C(F)(F)F)c3Cl)nc2n1 [Example 56, 5-tert-Butyl-2-(2-chloro-3-trifluoromethyl-benzyl)-7-(3,3-difluoro-pyrrolidin-1-yl)-2H-[1,2,3]triazolo[4,5-d]pyrimidine] | 12.6 nM | > 10000 nM
2 | COc1ccc(F)c(Cn2nc3nc(C(C)(C)C)nc(N4CCC(F)(F)C4)c3n2)c1Cl [Example 57, 5-tert-Butyl-2-(2-chloro-6-fluoro-3-methoxy-benzyl)-7-(3,3-difluoro-pyrrolidin-1-yl)-2H-[1,2,3]triazolo[4,5-d]pyrimidine] | 3.6 nM | > 10000 nM
3 | CC(C)(C)c1nc(N2CCC(F)(F)C2)c2nn(CCc3cccnc3)nc2n1 [Example 58, 5-tert-Butyl-7-(3,3-difluoro-pyrrolidin-1-yl)-2-(2-pyridin-3-yl-ethyl)-2H-[1,2,3]triazolo[4,5-d]pyrimidine] | 4.3 nM | > 10000 nM
4 | CC(C)(C)c1nc(N2CCC(F)(F)C2)c2nn(CCc3ccncc3)nc2n1 [Example 59, 5-tert-Butyl-7-(3,3-difluoro-pyrrolidin-1-yl)-2-(2-pyridin-4-yl-ethyl)-2H-[1,2,3]triazolo[4,5-d]pyrimidine] | 3.5 nM | > 10000 nM
5 | CC(C)(C)c1nc(N2CCC(F)(F)C2)c2nn(Cc3c(C(F)(F)F)ccc(Cl)c3Cl)nc2n1 [Example 60, 5-tert-Butyl-2-(2,3-dichloro-6-trifluoromethyl-benzyl)-7-(3,3-difluoro-pyrrolidin-1-yl)-2H-[1,2,3]triazolo[4,5-d]pyrimidine] | 12.7 nM | > 10000 nM
6 | CC(C)(C)c1nc(N2CCC(F)(F)C2)c2nn(Cc3nccc(Cl)c3Cl)nc2n1 [Example 61, 5-tert-Butyl-2-(3,4-dichloro-pyridin-2-ylmethyl)-7-(3,3-difluoro-pyrrolidin-1-yl)-2H-[1,2,3]triazolo[4,5-d]pyrimidine] | 2.6 nM | > 10000 nM
7 | CC(C)(C)c1nc(N2CCC(F)(F)C2)c2nn(C3CS(=O)(=O)C3)nc2n1 [Example 62, 5-tert-Butyl-7-(3,3-difluoro-pyrrolidin-1-yl)-2-(1,1-dioxo-1λ6-thietan-3-yl)-2H-[1,2,3]triazolo[4,5-d]pyrimidine] | 5.8 nM | > 10000 nM
8 | CC(C)(C)c1nc(N2CCC(F)(F)C2)c2nn(C3CCS(=O)(=O)C3)nc2n1 (stereo not drawn) [Example 63, 5-tert-Butyl-7-(3,3-difluoro-pyrrolidin-1-yl)-2-(1,1-dioxo-tetrahydro-1λ6-thiophen-3-yl)-2H-[1,2,3]triazolo[4,5-d]pyrimidine] | 4 nM | > 10000 nM
9 | CC(C)(C)c1nc(N2CCC(F)(F)C2)c2nn(CC(=O)c3ccccn3)nc2n1 [Example 64, 2-[5-tert-Butyl-7-(3,3-difluoro-pyrrolidin-1-yl)-[1,2,3]triazolo[4,5-d]pyrimidin-2-yl]-1-pyridin-2-yl-ethanone] | 2.4 nM | > 10000 nM
10 | Cc1nnc(Cn2nc3nc(C(C)(C)C)nc(N4CCC(F)(F)C4)c3n2)o1 [Example 65, 5-tert-Butyl-7-(3,3-difluoro-pyrrolidin-1-yl)-2-(5-methyl-[1,3,4]oxadiazol-2-ylmethyl)-2H-[1,2,3]triazolo[4,5-d]pyrimidine] | 18.6 nM | > 10000 nM
11 | CC(C)(C)c1nc(N2CCC(F)(F)C2)c2nn(Cc3ccncc3Cl)nc2n1 [Example 66, 5-tert-Butyl-2-(3-chloro-pyridin-4-ylmethyl)-7-(3,3-difluoro-pyrrolidin-1-yl)-2H-[1,2,3]triazolo[4,5-d]pyrimidine] | 0.4 nM | 234 nM
12 | Cc1nc(Cn2nc3nc(C(C)(C)C)nc(N4CCC(F)(F)C4)c3n2)no1 [Example 67, 5-tert-Butyl-7-(3,3-difluoro-pyrrolidin-1-yl)-2-(5-methyl-[1,2,4]oxadiazol-3-ylmethyl)-2H-[1,2,3]triazolo[4,5-d]pyrimidine] | 1.3 nM | 1630 nM
13 | Cn1nnnc1Cn1nc2nc(C(C)(C)C)nc(N3CCC(F)(F)C3)c2n1 [Example 68, 5-tert-Butyl-7-(3,3-difluoro-pyrrolidin-1-yl)-2-(1-methyl-1H-tetrazol-5-ylmethyl)-2H-[1,2,3]triazolo[4,5-d]pyrimidine] | 2.3 nM | > 10000 nM
14 | Cn1ncnc1Cn1nc2nc(C(C)(C)C)nc(N3CCC(F)(F)C3)c2n1 [Example 69, 5-tert-Butyl-7-(3,3-difluoro-pyrrolidin-1-yl)-2-(2-methyl-2H-[1,2,4]triazol-3-ylmethyl)-2H-[1,2,3]triazolo[4,5-d]pyrimidine] | 1.1 nM | > 10000 nM
15 | Cn1c(Cn2nc3nc(C(C)(C)C)nc(N4CCC(F)(F)C4)c3n2)nnc1S(C)(=O)=O [Example 70, 5-tert-Butyl-7-(3,3-difluoro-pyrrolidin-1-yl)-2-(5-methanesulfonyl-4-methyl-4H-[1,2,4]triazol-3-ylmethyl)-2H-[1,2,3]triazolo[4,5-d]pyrimidine] | 33.6 nM | > 10000 nM
16 | CN(C)c1c(Cl)cncc1Cn1nc2nc(C(C)(C)C)nc(N3CCC(F)(F)C3)c2n1 [Example 71, {3-[5-tert-Butyl-7-(3,3-difluoro-pyrrolidin-1-yl)-[1,2,3]triazolo[4,5-d]pyrimidin-2-ylmethyl]-5-chloro-pyridin-4-yl}-dimethyl-amine] | 1.4 nM | 105 nM
17 | CC(C)(C)c1nc(N2CCC(F)(F)C2)c2nn(Cc3c[nH]nc3C(F)(F)F)nc2n1 [Example 72, 5-tert-Butyl-7-(3,3-difluoro-pyrrolidin-1-yl)-2-(3-trifluoromethyl-1H-pyrazol-4-ylmethyl)-2H-[1,2,3]triazolo[4,5-d]pyrimidine] | 11.8 nM | > 10000 nM
18 | Cc1nonc1Cn1nc2nc(C(C)(C)C)nc(N3CC[C@H](O)C3)c2n1 [Example 73, (S)-1-[5-tert-Butyl-2-(4-methyl-furazan-3-ylmethyl)-2H-[1,2,3]triazolo[4,5-d]pyrimidin-7-yl]-pyrrolidin-3-ol] | 7.1 nM | > 10000 nM
19 | Cc1noc(Cn2nc3nc(C(C)(C)C)nc(N4CC[C@H](O)C4)c3n2)n1 [Example 74, (S)-1-[5-tert-Butyl-2-(3-methyl-[1,2,4]oxadiazol-5-ylmethyl)-2H-[1,2,3]triazolo[4,5-d]pyrimidin-7-yl]-pyrrolidin-3-ol] | 61.3 nM | > 10000 nM
20 | CC(C)(C)c1nc(N2CC[C@H](O)C2)c2nn(Cc3ncccc3Cl)nc2n1 [Example 75, (S)-1-[5-tert-Butyl-2-(3-chloro-pyridin-2-ylmethyl)-2H-[1,2,3]triazolo[4,5-d]pyrimidin-7-yl]-pyrrolidin-3-ol] | 4.6 nM | > 10000 nM
21 | CC(C)(C)c1nc(N2CC[C@H](O)C2)c2nn(Cc3nc(Cl)ccc3Cl)nc2n1 [Example 76, (S)-1-[5-tert-Butyl-2-(3,6-dichloro-pyridin-2-ylmethyl)-2H-[1,2,3]triazolo[4,5-d]pyrimidin-7-yl]-pyrrolidin-3-ol] | 5.9 nM | > 10000 nM
22 | CC(C)(C)c1nc(N2CC[C@H](O)C2)c2nn(Cc3cccnc3Cl)nc2n1 [Example 77, (S)-1-[5-tert-Butyl-2-(2-chloro-pyridin-3-ylmethyl)-2H-[1,2,3]triazolo[4,5-d]pyrimidin-7-yl]-pyrrolidin-3-ol] | 15.5 nM | > 10000 nM
23 | CC(C)(C)c1nc(N2CC[C@H](O)C2)c2nn(Cc3cccc(Cl)c3Cl)nc2n1 [Example 78, (S)-1-[5-tert-Butyl-2-(2,3-dichloro-benzyl)-2H-[1,2,3]triazolo[4,5-d]pyrimidin-7-yl]-pyrrolidin-3-ol] | 6 nM | > 10000 nM
24 | CC(C)(C)c1nc(N2CC[C@H](O)C2)c2nn(Cc3ccccc3C(F)(F)F)nc2n1 [Example 79, (S)-1-[5-tert-Butyl-2-(2-trifluoromethyl-benzyl)-2H-[1,2,3]triazolo[4,5-d]pyrimidin-7-yl]-pyrrolidin-3-ol] | 0.4 nM | > 10000 nM
25 | CC(C)(C)c1nc(N2CC[C@H](O)C2)c2nn(Cc3ccccc3S(C)(=O)=O)nc2n1 [Example 80, (S)-1-[5-tert-Butyl-2-(2-methanesulfonyl-benzyl)-2H-[1,2,3]triazolo[4,5-d]pyrimidin-7-yl]-pyrrolidin-3-ol] | 10.3 nM | > 10000 nM
26 | Cc1cc(Cn2nc3nc(C(C)(C)C)nc(N4CCC(F)(F)C4)c3n2)n(C)n1 [Example 81, 5-tert-Butyl-7-(3,3-difluoro-pyrrolidin-1-yl)-2-(2,5-dimethyl-2H-pyrazol-3-ylmethyl)-2H-[1,2,3]triazolo[4,5-d]pyrimidine] | 9.4 nM | > 10000 nM
27 | Cn1nncc1Cn1nc2nc(C(C)(C)C)nc(N3CCC(F)(F)C3)c2n1 [Example 82, 5-tert-Butyl-7-(3,3-difluoro-pyrrolidin-1-yl)-2-(3-methyl-3H-[1,2,3]triazol-4-ylmethyl)-2H-[1,2,3]triazolo[4,5-d]pyrimidine] | 2.8 nM | > 10000 nM
